Reference: the NIST ThermoML archive (doi:10.1016/j.jct.2018.12.031)

Test: xn = mol fraction of the nth substance listed
Details: 100 kPa, Liquid; for speed of sound: Frequency=3 MHz, Linear variable-path acoustic interferometer; for mass density: Pycnometric method

C=C(C)C(=O)OCC [ethyl 2-methylpropenoate] + N#Cc1ccccc1
Details | mass density [kg/m3] | speed of sound [m/s]
293.15 K, x2 = 0 | 912.3 | 1196.8
293.15 K, x2 = 0.0711 | 918.32 | 1212.4
293.15 K, x2 = 0.1419 | 924.37 | 1228
293.15 K, x2 = 0.2152 | 930.7 | 1244.1
293.15 K, x2 = 0.2872 | 936.99 | 1259.8
293.15 K, x2 = 0.3568 | 943.14 | 1274.9
293.15 K, x2 = 0.4307 | 949.76 | 1290.9
293.15 K, x2 = 0.4991 | 955.96 | 1306
293.15 K, x2 = 0.5752 | 962.96 | 1323.3
293.15 K, x2 = 0.6431 | 969.29 | 1339.2
293.15 K, x2 = 0.7177 | 976.35 | 1357.7
293.15 K, x2 = 0.7773 | 982.06 | 1373
293.15 K, x2 = 0.8576 | 989.86 | 1394.7
293.15 K, x2 = 0.9289 | 996.89 | 1414.8
298.15 K, x2 = 0 | 907.18 | 1176.9
298.15 K, x2 = 0.0711 | 913.3 | 1193
298.15 K, x2 = 0.1419 | 919.45 | 1208.9
298.15 K, x2 = 0.2152 | 925.88 | 1225
298.15 K, x2 = 0.2872 | 932.27 | 1240.7
298.15 K, x2 = 0.3568 | 938.52 | 1255.7
298.15 K, x2 = 0.4307 | 945.23 | 1271.6
298.15 K, x2 = 0.4991 | 951.53 | 1286.8
298.15 K, x2 = 0.5752 | 958.64 | 1304.2
298.15 K, x2 = 0.6431 | 965.07 | 1320
298.15 K, x2 = 0.7177 | 972.24 | 1338.5
298.15 K, x2 = 0.7773 | 978.04 | 1354
298.15 K, x2 = 0.8576 | 985.97 | 1375.9
298.15 K, x2 = 0.9289 | 993.11 | 1396.3
303.15 K, x2 = 0 | 902.06 | 1157.6
303.15 K, x2 = 0.0711 | 908.28 | 1174.2
303.15 K, x2 = 0.1419 | 914.53 | 1190.4
303.15 K, x2 = 0.2152 | 921.06 | 1206.4
303.15 K, x2 = 0.2872 | 927.55 | 1222.1
303.15 K, x2 = 0.3568 | 933.89 | 1237.4
303.15 K, x2 = 0.4307 | 940.7 | 1253.4
303.15 K, x2 = 0.4991 | 947.1 | 1268.4
303.15 K, x2 = 0.5752 | 954.32 | 1285.8
303.15 K, x2 = 0.6431 | 960.85 | 1301.7
303.15 K, x2 = 0.7177 | 968.13 | 1320.4
303.15 K, x2 = 0.7773 | 974.02 | 1336
303.15 K, x2 = 0.8576 | 982.07 | 1358.2
303.15 K, x2 = 0.9289 | 989.33 | 1379.1
308.15 K, x2 = 0 | 896.94 | 1139.4
308.15 K, x2 = 0.0711 | 903.26 | 1156.4
308.15 K, x2 = 0.1419 | 909.61 | 1172.7
308.15 K, x2 = 0.2152 | 916.24 | 1188.9
308.15 K, x2 = 0.2872 | 922.82 | 1204.6
308.15 K, x2 = 0.3568 | 929.26 | 1219.8
308.15 K, x2 = 0.4307 | 936.17 | 1236
308.15 K, x2 = 0.4991 | 942.67 | 1251.3
308.15 K, x2 = 0.5752 | 949.99 | 1268.7
308.15 K, x2 = 0.6431 | 956.62 | 1284.7
308.15 K, x2 = 0.7177 | 964.02 | 1303.5
308.15 K, x2 = 0.7773 | 970 | 1319.3
308.15 K, x2 = 0.8576 | 978.17 | 1341.8
308.15 K, x2 = 0.9289 | 985.54 | 1362.6
313.15 K, x2 = 0 | 891.83 | 1121.5
313.15 K, x2 = 0.0711 | 898.24 | 1138.9
313.15 K, x2 = 0.1419 | 904.68 | 1155.3
313.15 K, x2 = 0.2152 | 911.41 | 1171.7
313.15 K, x2 = 0.2872 | 918.09 | 1187.4
313.15 K, x2 = 0.3568 | 924.62 | 1202.7
313.15 K, x2 = 0.4307 | 931.64 | 1218.9
313.15 K, x2 = 0.4991 | 938.23 | 1234.1
313.15 K, x2 = 0.5752 | 945.66 | 1251.8
313.15 K, x2 = 0.6431 | 952.39 | 1268.2
313.15 K, x2 = 0.7177 | 959.9 | 1287.3
313.15 K, x2 = 0.7773 | 965.97 | 1303.5
313.15 K, x2 = 0.8576 | 974.27 | 1326.1
313.15 K, x2 = 0.9289 | 981.75 | 1347.2
318.15 K, x2 = 0 | 886.71 | 1104.6
318.15 K, x2 = 0.0711 | 893.22 | 1122.5
318.15 K, x2 = 0.1419 | 899.75 | 1139.1
318.15 K, x2 = 0.2152 | 906.58 | 1155.6
318.15 K, x2 = 0.2872 | 913.35 | 1171.4
318.15 K, x2 = 0.3568 | 919.98 | 1186.5
318.15 K, x2 = 0.4307 | 927.11 | 1202.7
318.15 K, x2 = 0.4991 | 933.79 | 1217.9
318.15 K, x2 = 0.5752 | 941.33 | 1235.6
318.15 K, x2 = 0.6431 | 948.16 | 1252.3
318.15 K, x2 = 0.7177 | 955.78 | 1271.8
318.15 K, x2 = 0.7773 | 961.94 | 1288.2
318.15 K, x2 = 0.8576 | 970.37 | 1311.3
318.15 K, x2 = 0.9289 | 977.96 | 1332.3
